Values of other authors as cited in paper PMC9441699 (Frontiers in Cellular and Infection Microbiology, 2022).
Read-outs that look alike come from different tables or passages of the source.

Experiments:
Vero cells = system: Vero cells; set-up: method as in Ho et al., 2007; conditions: 0, 10, 50, 100, 200 and 400 µ/mL; ref Ho et al., 2007
[1] = target: angiotensin converting enzyme from rabbit lung; set-up: method as in Yu et al., 2012; conditions: 0.01-10 µM; ref Yu et al., 2012
[2] = system: interaction of S protein with ACE2; set-up: method as in Ho et al., 2007; dose or concentration left out as unconfirmed; conditions: ref Ho et al., 2007
SARS-CoV [3] = conditions: ref Li et al., 2005
MERS-CoV = conditions: 2019
HcoV-OC43 = conditions: 2019
SARS-CoV [4] = conditions: read-out: EC50 SARS-CoV viral replication
RdRp Dengue virus = system: RdRp Dengue virus; set-up: method as in Coulerie et al., 2013; conditions: in vitro; ref Coulerie et al., 2013
[5] = system: HcoV-NL63 inLLC-MK2 cells; set-up: method as in Weng et al., 2019; conditions: 0, 10, 50,100 µM/36h; ref Weng et al., 2019; read-out: Inhibition of viral cytopathicity IC50
[6] = tanshinones from Salvia miltiorrhiza, read-out: IC50 against PLpro
[7] = 1, 2.5, 20 µM/16h, ref Jo et al., 2020, read-out: IC50

For `Cc1cc(O)c2c(c1)C(=O)c1cc(O)cc(O)c1C2=O` [Ligand L07, Emodin], the IC50 (Vero cells) is listed as 200 µM.
For `O=c1c(O)c(-c2cc(O)c(O)c(O)c2)oc2cc(O)cc(O)c12` [Ligand L03, Myricetin], the “inhibitory effect against SARS-CoV helicase” value (SARS-CoV helicase) is given as “moderate inhibitory impacts” and the IC50 [1] is given as 2.71 µM.
For `Cc1coc2c1C(=O)C(=O)c1c-2ccc2c1CCCC2(C)C` [tanshinone IIA], the IC50 (SARS-CoV-PLpro; [6]) is listed as 1.6 µM.
In the case of `O=c1cc(-c2ccccc2)oc2cc(O)cc(O)c12` [chrysin], the “effect on the interaction of S protein with ACE2” value [2] is given as “weak inhibitory effect”.
In the case of `CC[C@H](CC[C@@H](C)[C@H]1CC[C@H]2[C@@H]3CC=C4C[C@@H](O)CC[C@]4(C)[C@H]3CC[C@]12C)C(C)C` [Sitosternol], the EC50 (HcoV-NL63; ref Lin et al., 2005, read-out: EC50 against human coronavirus (HCoV-NL63)) is listed as 1210 µM.
For `COc1cc(/C=C/C(=O)NC(O)C(=O)c2ccc(O)cc2)ccc1O` (stereo not shown) [Ligand L15, Terrestrimine], the IC50 (SARS-CoV-PLpro; 1,10,100,1000 µM, ref Song et al., 2014, read-out: IC50) is given as 15.8 µM.
In the case of `O[C@H]1[C@H]2c3cc4c(cc3CN3CCC(=C[C@@H]1O)[C@H]23)OCO4` [lycorine], the EC50 (SARS-CoV [3]; MTS test, read-out: EC50 against SARS-CoV) is listed as 0.0157 ± 0.0012 µM, the IC50 (SARS-CoV [3]; Prasansuklab et al., 2020, read-out: IC50 anti-SARS-CoV) is listed as 0.0157 µM and the EC50 (HcoV-NL63; in vitro, ref Shen et al., 2019, read-out: EC50 HcoV-NL63) is listed as 0.47 µM. For the same compound, the EC50 (MERS-CoV; in vitro, ref Shen et al.) was 1.63 µM and the EC50 (HcoV-OC43; in vitro, ref Shen et al.) was 0.15 µM.
In the case of `O=c1cc(-c2ccc(O)cc2)oc2cc(O)c(O)c(O)c12` [Ligand L13, Scutellarein], the “inhibitory effect against SARS-CoV helicase” value (SARS-CoV helicase) is listed as “moderate inhibitory impacts” and the IC50 (SARS-CoV helicase; 0.01-10 µM, In vitro, ref Yu et al., 2012) is listed as 0.86 µM.
In the case of `CC[C@H]1CN2CCc3cc(OC)c(OC)cc3[C@@H]2C[C@@H]1C[C@H]1NCCc2cc(OC)c(OC)cc21` [Emetine, reference compound], the EC50 (HcoV-NL63; ref Weber and Opatz, 2019, read-out: EC50 HcoV-NL63) is listed as 1.43 µM, the EC50 (MERS-CoV; ref Weber and Opatz) is listed as 0.34 µM and the EC50 (HcoV-OC43; ref Weber and Opatz) is listed as 0.3 µM.
In the case of `COc1ccc(C(=O)/C=C/c2ccc(O)cc2)c(O)c1C/C=C(\C)CCC=C(C)C` [xanthoangelol F], the IC50 (SARS-CoV-PLpro; noncompetitive inhibition, ref Park et al., 2016, read-out: IC50 PLpro) is listed as 5.6 µM.
In the case of `O=c1c(O)c(-c2ccc(O)cc2)oc2c(O)c(O)cc(O)c12` [Ligand L16, Herbacetin], the IC50 (SARS-CoV-3CLpro; [7]) is given as 33.2 µM.
For `Cc1cccc2c3c(ccc12)C1=C(C(=O)C3=O)[C@@H](C)CO1` [Ligand L09, Dihydrotanshinone l,], the IC50 (SARS-CoV-3CLpro; 0-200 µM/60min, ref Park et al., 2012b, read-out: IC50) is listed as 14.4 µM and the IC50 (SARS-CoV-PLpro; [6]) is listed as 4.9 µM.
In the case of `COC(=O)[C@H]1[C@H]2C[C@@H]3c4[nH]c5cc(OC)ccc5c4CCN3C[C@H]2C[C@@H](OC(=O)c2cc(OC)c(OC)c(OC)c2)[C@@H]1OC` [Reserpine], the EC50 (SARS-CoV [4]) is listed as 3.4 µM.
For `O=C(/C=C/CCc1ccc(O)c(O)c1)CCc1ccc(O)c(O)c1` [Ligand L01, Hirsutenone], the IC50 (SARS-CoV-PLpro; 0-200 µM/60min, ref Park et al., 2012a, read-out: IC50) is given as 4.1 µM.
For `COc1ccc(-c2cc(=O)c3c(O)c(OC)c(O[C@@H]4O[C@H](CO[C@@H]5O[C@@H](C)[C@H](O)[C@@H](O)[C@H]5O)[C@@H](O)[C@H](O)[C@H]4O)cc3o2)cc1` [Ligand L17, Pectolinarin], the IC50 (SARS-CoV-3CLpro; [7]) is given as 37.8 µM.
For curcumin, the IC50 (SARS-CoV-PLpro; diarylheptanoids, ref Park et al., 2012a, read-out: IC50 PLpro) is given as 5.7 µM.
In the case of `C=C(C)C(Cc1c(OC)ccc(C(=O)/C=C/c2ccc(O)cc2)c1O)OO` (stereo not shown) [Ligand L02, Xanthoangelol E], the IC50 (SARS-CoV-3CLpro; 0, 12.5, 25, 50 µM, ref Park et al., 2016, read-out: Inhibition of SARS-CoV-3CLpro activity IC50) is given as 11.4 µM and the IC50 (SARS-CoV-PLpro; 0, 12.5, 25, 50 µM, ref Park et al., 2016, read-out: Inhibition of SARS-CoV-PLpro activity IC50) is given as 1.2 µM.
In the case of `C[C@H]1COC2=C1C(=O)C(=O)c1c2ccc2c1CCCC2(C)C` [Ligand L08, Cryptotanshinone], the IC50 (SARS-CoV-PLpro; 0-200 µM/30min, ref Park et al., 2012b, read-out: IC50) is given as 0.8 µM.
For `O=c1cc(-c2ccc(O)c(-c3c(O)cc(O)c4c(=O)cc(-c5ccc(O)cc5)oc34)c2)oc2cc(O)cc(O)c12` [Ligand L14, Amentoflavone], the IC50 (SARS-CoV-3CLpro; 0-300 µM, ref Ryu et al., 2010a, read-out: IC50) is given as 8.3 µM.
For `COc1cc(O)c2c(=O)cc(-c3ccc(O)cc3)oc2c1-c1cc(-c2cc(=O)c3c(O)cc(O)cc3o2)ccc1O` [sotetsuflavone], the IC50 (RdRp Dengue virus) is given as 0.16 µM.
In the case of `C[C@@H]1O[C@@H](O[C@H]2[C@H](Oc3cc(O)c4c(=O)cc(-c5ccc(O)cc5)oc4c3)O[C@H](CO)[C@@H](O)[C@@H]2O)[C@H](O)[C@H](O)[C@H]1O` [Ligand L18, Rhoifolin], the IC50 (SARS-CoV-3CLpro; [7]) is given as 27.4 µM.
In the case of `O=C(O)c1cc(O)c(O)c(O)c1` [Ligand L12, Gallic acid], the IC50 [5] is given as 71.5 µM.
In the case of `O=C(/C=C/c1ccc(O)c(O)c1)O[C@@H]1C[C@](O)(C(=O)O)C[C@@H](O)[C@H]1O` [Ligand L11, Chlorogenic acid], the IC50 [5] is listed as 43.5 µM.
In the case of `O=C(O)/C=C/c1ccc(O)c(O)c1` [Ligand L10, Caffeic acid], the IC50 [5] is given as 3.54 µM.
For `CC(C)=CCc1cc2c(cc1O)oc(=O)c1c3ccc(O)cc3oc21` [Ligand L04, Psoralidin], the IC50 (SARS-CoV-PLpro; 0-100 µM, ref Kim et al., 2014, read-out: IC50) is given as 4.2 µM.
For `COc1cc([C@H]2Oc3cc4c(c(O)c3C(=O)[C@@H]2O)CCC(C)(CCCC(C)(C)O)O4)ccc1O` (stereo partly shown) [Ligand L06, Tomentin E], the IC50 (SARS-CoV-PLpro; 0, 6.25, 12.5, 25 µM, ref Cho et al., 2013, read-out: IC50) is given as 5 µM.
For `Oc1cc(O)cc(Oc2c(O)cc(O)c3c2Oc2c(O)cc(Oc4c(O)cc(Oc5c(O)cc(O)c6c5Oc5c(O)cc(O)cc5O6)cc4O)cc2O3)c1` [Ligand L05, Dieckol], the IC50 (SARS-CoV-3CLpro; 0-200 µM, ref Park et al., 2013, read-out: IC50) is listed as 2.7 µM.
